Where two headings read alike, the source gives them in different places.
Key:
[1] = biological target: T1, SOS1 catalytic domain (residues 564-1049) (Homo sapiens, UniProt Q07889); experiment: Mode of Action Assay: inhibition of SOS1 nucleotide exchange activity (SOS1 TR-FRET IC50 Assay)
T1 sequence (Q07889 564-1049): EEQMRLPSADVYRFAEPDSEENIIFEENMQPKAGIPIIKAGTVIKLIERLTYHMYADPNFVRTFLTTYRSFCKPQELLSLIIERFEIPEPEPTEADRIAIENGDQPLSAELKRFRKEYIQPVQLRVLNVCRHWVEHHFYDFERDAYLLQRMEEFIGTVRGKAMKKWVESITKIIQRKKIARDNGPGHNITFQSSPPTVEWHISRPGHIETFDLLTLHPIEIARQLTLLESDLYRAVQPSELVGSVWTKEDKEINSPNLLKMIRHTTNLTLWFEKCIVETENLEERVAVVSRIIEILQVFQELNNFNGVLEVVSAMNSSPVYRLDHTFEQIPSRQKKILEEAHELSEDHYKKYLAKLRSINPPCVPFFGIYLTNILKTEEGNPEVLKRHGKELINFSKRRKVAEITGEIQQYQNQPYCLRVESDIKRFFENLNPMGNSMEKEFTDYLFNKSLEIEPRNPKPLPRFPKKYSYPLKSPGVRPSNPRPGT

[2] = biological target: T1, SOS1 catalytic domain (residues 564-1049); experiment: Potency Assay: binding affinity to SOS1 using Surface Plasmon Resonance (SPR); set-up: SOS1 catalytic domain (residues 564-1049) immobilized on a sensor chip; conditions: immobilized SOS1 catalytic domain (residues 564-1049), read-out: SOS1 SPR Equilibrium Kd
Outline: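 Kd was obtained by plotting binding response, taken just before association ended, versus compound concentration on a Biacore 8K. Compounds flowed at 50 μL/min over streptavidin-captured avi-SOS1 catalytic domain (~6000 RU), followed by buffer dissociation; HEPES 0.01 M/NaCl 0.15 M/0.05% P20 buffer, double-referenced.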

[3] = test system: PC-9 cells (EGFR Ex19Del); experiment: Potency Assay: pERK (SOS1 pERK IC50 Assay, AlphaLISA SureFire Ultra p-ERK1/2); type: cell-based; conditions: Homo sapiens, read-out: SOS1 pERK IC50
Outline: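 Cellular pERK1/2 by AlphaLISA SureFire Ultra after 1 h compound exposure (37° C., highest concentration 10 μM, 3-fold steps, duplicates) of EGFR Ex19Del PC-9 cells seeded the day before. A 4-parameter fit of signal versus log concentration gives IC50.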

[4] = PC-9 cells (EGFR Ex19Del), 1 hour incubation, AlphaLISA p-ERK1/2

| IC50 [1] | Kd [2] | IC50 [3, 4] | Structure (SMILES) | IC50 ([3]; PC-9, 1 h) |
| --- | --- | --- | --- | --- |
| < 1000 nM | < 400 nM | < 1000 nM | C[C@@H](Nc1nc(Cl)nc2c1CN(S(=O)(=O)C1CCOCC1)C2)c1cc(N)cc(C(F)(F)F)c1 [Example 51] | – |
| < 1000 nM | < 400 nM | < 1000 nM | C[C@@H](Nc1nc(Cl)nc2c1CN(S(=O)(=O)C1CC1)C2)c1cc(N)cc(C(F)(F)F)c1 [Example 52] | – |
| > 1000 nM | > 400 nM | > 1000 nM | CC(Nc1nc(Cl)nc2c1CN(C(=O)N1CCOCC1)C2)c1ccc(-c2ccccc2CO)s1 (stereo not drawn) [Example 53, [2-chloro-4-[1-[5-[2-(hydroxymethyl)phenyl]-2-thienyl]ethylamino]-5,7-dihydropyrrolo[3,4-d]pyrimidin-6-yl]-morpholino-methanone] | – |
| < 1000 nM | < 400 nM | < 1000 nM | COc1cnc(C(=O)N2Cc3nc(Cl)nc(N[C@H](C)c4cc(N)cc(C(F)(F)F)c4)c3C2)cc1OC [Example 59] | – |
| > 1000 nM | < 400 nM | < 1000 nM | COc1ncc(C(=O)N2Cc3nc(Cl)nc(N[C@H](C)c4cc(N)cc(C(F)(F)F)c4)c3C2)cn1 [Example 60] | – |
| > 1000 nM | < 400 nM | < 1000 nM | C[C@@H](Nc1nc(Cl)nc2c1CN(C(=O)c1ccc(OC(F)F)cn1)C2)c1cc(N)cc(C(F)(F)F)c1 [Example 61] | – |
| > 1000 nM | < 400 nM | < 1000 nM | COc1cc(C(=O)N2Cc3nc(Cl)nc(N[C@H](C)c4cc(N)cc(C(F)(F)F)c4)c3C2)ncn1 [Example 62] | – |
| < 1000 nM | > 400 nM | < 1000 nM | C[C@@H](Nc1nc(Cl)nc2c1CN(C(=O)c1ccccn1)C2)c1cc(N)cc(C(F)(F)F)c1 [Example 65] | – |
| < 1000 nM | < 400 nM | < 1000 nM | C[C@@H](Nc1nc(Cl)nc2c1CN(C(=O)c1cc(N3CCOCC3)ccn1)C2)c1cc(N)cc(C(F)(F)F)c1 [Example 68] | – |
| > 1000 nM | > 400 nM | < 1000 nM | C[C@@H](Nc1nc(Cl)nc2c1CN(C(=O)c1ncccn1)C2)c1cc(N)cc(C(F)(F)F)c1 [Example 70] | – |
| < 1000 nM | < 400 nM | < 1000 nM | C[C@@H](Nc1nc(Cl)nc2c1CN(C(=O)c1cccnn1)C2)c1cc(N)cc(C(F)(F)F)c1 [Example 71] | – |
| < 1000 nM | > 400 nM | < 1000 nM | COc1nccc(C(=O)N2Cc3nc(Cl)nc(N[C@H](C)c4cc(N)cc(C(F)(F)F)c4)c3C2)n1 [Example 72] | – |
| < 1000 nM | < 400 nM | < 1000 nM | C[C@@H](Nc1nc(Cl)nc2c1CN(C(=O)c1ccncn1)C2)c1cc(N)cc(C(F)(F)F)c1 [Example 73] | – |
| < 1000 nM | < 400 nM | < 1000 nM | COc1nccnc1C(=O)N1Cc2nc(Cl)nc(N[C@H](C)c3cc(N)cc(C(F)(F)F)c3)c2C1 [Example 75] | – |
| < 1000 nM | > 400 nM | < 1000 nM | C[C@@H](Nc1nc(Cl)nc2c1CN(C(=O)c1cccc3c1OCCN3)C2)c1cc(N)cc(C(F)(F)F)c1 [Example 77] | – |
| < 1000 nM | < 400 nM | < 1000 nM | C[C@@H](Nc1nc(Cl)nc2c1CN(C(=O)c1ccnnc1)C2)c1cc(N)cc(C(F)(F)F)c1 [Example 78] | – |
| < 1000 nM | < 400 nM | < 1000 nM | C[C@@H](Nc1nc(Cl)nc2c1CN(C(=O)c1ccc3c(n1)CCNC3)C2)c1cc(N)cc(C(F)(F)F)c1 [Example 82] | – |

| IC50 [1] | Kd [2] | IC50 [3, 4] | Structure (SMILES) | IC50 ([3]; PC-9, 1 h) |
| --- | --- | --- | --- | --- |
| > 1000 nM | > 400 nM | < 1000 nM | C[C@@H](Nc1nc(Cl)nc2c1CN(C(=O)c1cccc(OC3CCOCC3)n1)C2)c1cc(N)cc(C(F)(F)F)c1 [Example 83] | – |
| > 1000 nM | < 400 nM | < 1000 nM | C[C@@H](Nc1nc(Cl)nc2c1CN(C(=O)c1ccc(N3CCOCC3)cn1)C2)c1cc(N)cc(C(F)(F)F)c1 [Example 84] | – |
| < 1000 nM | < 400 nM | < 1000 nM | C[C@@H](Nc1nc(Cl)nc2c1CN(C(=O)c1ncccc1C(F)(F)F)C2)c1cc(N)cc(C(F)(F)F)c1 [Example 86] | – |
| > 1000 nM | > 400 nM | < 1000 nM | C[C@@H](Nc1nc(Cl)nc2c1CN(C(=O)c1cccc(Cl)n1)C2)c1cc(N)cc(C(F)(F)F)c1 [Example 87] | – |
| > 1000 nM | > 400 nM | < 1000 nM | C[C@@H](Nc1nc(Cl)nc2c1CN(C(=O)c1cnc3[nH]ccc3c1)C2)c1cc(N)cc(C(F)(F)F)c1 [Example 91] | – |
| > 1000 nM | < 400 nM | > 1000 nM | C[C@@H](Nc1nc(Cl)nc2c1CN(C(=O)c1csc(C3CCNCC3)n1)C2)c1cc(N)cc(C(F)(F)F)c1 [Example 92] | – |
| < 1000 nM | < 400 nM | < 1000 nM | COC1(C(=O)N2Cc3nc(Cl)nc(N[C@H](C)c4cc(N)cc(C(F)(F)F)c4)c3C2)CCOCC1 [Example 93] | – |
| < 1000 nM | < 400 nM | < 1000 nM | C[C@@H](Nc1nc(Cl)nc2c1CN(C(=O)C1C3COCC31)C2)c1cc(N)cc(C(F)(F)F)c1 (stereo partly drawn) [Example 94] | – |
| < 1000 nM | < 400 nM | < 1000 nM | C[C@@H](Nc1nc(Cl)nc2c1CN(C(=O)C1CCN(C)C1)C2)c1cc(N)cc(C(F)(F)F)c1 (stereo partly drawn) [Example 101] | – |
| > 1000 nM | > 400 nM | < 1000 nM | COc1ccc(CC(=O)N2Cc3nc(Cl)nc(N[C@H](C)c4cc(N)cc(C(F)(F)F)c4)c3C2)cc1OC [Example 102] | – |
| < 1000 nM | < 400 nM | < 1000 nM | C[C@@H](Nc1nc(Cl)nc2c1CN(C(=O)c1cc(-n3ccnc3)ccn1)C2)c1cc(N)cc(C(F)(F)F)c1 [Example 104] | – |
| < 1000 nM | < 400 nM | < 1000 nM | COc1cccc(C(=O)N2Cc3nc(Cl)nc(N[C@H](C)c4cc(N)cc(C(F)(F)F)c4)c3C2)c1OC [Example 107] | – |
| < 1000 nM | < 400 nM | < 1000 nM | C[C@@H](Nc1nc(Cl)nc2c1CN(C(=O)c1cnc[nH]1)C2)c1cc(N)cc(C(F)(F)F)c1 [Example 108] | – |
| < 1000 nM | < 400 nM | > 1000 nM | Cc1nc2c(c(N[C@H](C)c3cc(N)cc(C(F)(F)F)c3)n1)CN(C(=O)C1CCOCC1)C2 [Example 119, N-[(1R)-1-[3-amino-5-(trifluoromethyl)phenyl]ethyl]-2-methyl-6-(oxane-4-carbonyl)-5H,6H,7H-pyrrolo[3,4-d]pyrimidin-4-amine] | – |
| > 1000 nM | > 400 nM | > 1000 nM | CC(=O)N1Cc2nc(C)nc(N[C@H](C)c3cc(N)cc(C(F)(F)F)c3)c2C1 [Example 120, 1-(4-{[(1R)-1-[3-amino-5-(trifluoromethyl)phenyl]ethyl]amino}-2-methyl-5H,6H,7H-pyrrolo[3,4-d]pyrimidin-6-yl)ethan-1-one] | – |
| < 1000 nM | < 400 nM | < 1000 nM | C[C@@H](Nc1nc(C#N)nc2c1CN(C(=O)N1CCOCC1)C2)c1cc(N)cc(C(F)(F)F)c1 [Example 123, 4-{[(1R)-1-[3-amino-5-(trifluoromethyl)phenyl]ethyl]amino}-6-(morpholine-4-carbonyl)-5H,6H,7H-pyrrolo[3,4-d]pyrimidine-2-carbonitrile] | – |
| < 1000 nM | < 400 nM | < 1000 nM | CNc1nc2c(c(N[C@H](C)c3cc(N)cc(C(F)(F)F)c3)n1)CN(C(=O)N1CCOCC1)C2 [Example 125, N4-[(1R)-1-[3-amino-5-(trifluoro-methyl)phenyl]ethyl]-N2-methyl-6-(morpholine-4-carbonyl)-5H,6H,7H-pyrrolo[3,4-d]pyrimidine-2,4-diamine] | – |

| Structure (SMILES) | IC50 [1] | Kd [2] | IC50 [3, 4] | IC50 ([3]; PC-9, 1 h) |
| --- | --- | --- | --- | --- |
| C[C@@H](Nc1nc(Cl)nc2c1CN(C(=O)OC1CCOCC1)C2)c1cc(N)cc(C(F)(F)F)c1 [Example 115, oxan-4-yl 4-{[(1R)-1-[3-amino-5-(trifluoromethyl)phenyl]ethyl]amino}-2-chloro-5H,6H,7H-pyrrolo[3,4-d]pyrimidine-6-carboxylate] | > 1000 nM | < 400 nM | – | < 1000 nM |
| Cc1nc2c(c(N[C@H](C)c3cc(N)cc(C(F)(F)F)c3)n1)CN(C(=O)OC1CCOCC1)C2 [Example 118, oxan-4-yl 4-{[(1R)-1-[3-amino-5-(trifluoromethyl)phenyl]ethyl]amino}-2-methyl-5H,6H,7H-pyrrolo[3,4-d]pyrimidine-6-carboxylate] | < 1000 nM | > 400 nM | – | < 1000 nM |
